Our source for the DC50 and EC50 values is US20250320206A1, “STAT6 DEGRADERS” (Gilead Sciences, Inc., priority 2024, published 2025).

The target of assay [1] is T1, STAT6 (Homo sapiens, UniProt P42226).
T1 construct: These cells express endogenous STAT6; host or cells: HeLa LgBiT clone 4.14
T1 sequence (P42226 1-847): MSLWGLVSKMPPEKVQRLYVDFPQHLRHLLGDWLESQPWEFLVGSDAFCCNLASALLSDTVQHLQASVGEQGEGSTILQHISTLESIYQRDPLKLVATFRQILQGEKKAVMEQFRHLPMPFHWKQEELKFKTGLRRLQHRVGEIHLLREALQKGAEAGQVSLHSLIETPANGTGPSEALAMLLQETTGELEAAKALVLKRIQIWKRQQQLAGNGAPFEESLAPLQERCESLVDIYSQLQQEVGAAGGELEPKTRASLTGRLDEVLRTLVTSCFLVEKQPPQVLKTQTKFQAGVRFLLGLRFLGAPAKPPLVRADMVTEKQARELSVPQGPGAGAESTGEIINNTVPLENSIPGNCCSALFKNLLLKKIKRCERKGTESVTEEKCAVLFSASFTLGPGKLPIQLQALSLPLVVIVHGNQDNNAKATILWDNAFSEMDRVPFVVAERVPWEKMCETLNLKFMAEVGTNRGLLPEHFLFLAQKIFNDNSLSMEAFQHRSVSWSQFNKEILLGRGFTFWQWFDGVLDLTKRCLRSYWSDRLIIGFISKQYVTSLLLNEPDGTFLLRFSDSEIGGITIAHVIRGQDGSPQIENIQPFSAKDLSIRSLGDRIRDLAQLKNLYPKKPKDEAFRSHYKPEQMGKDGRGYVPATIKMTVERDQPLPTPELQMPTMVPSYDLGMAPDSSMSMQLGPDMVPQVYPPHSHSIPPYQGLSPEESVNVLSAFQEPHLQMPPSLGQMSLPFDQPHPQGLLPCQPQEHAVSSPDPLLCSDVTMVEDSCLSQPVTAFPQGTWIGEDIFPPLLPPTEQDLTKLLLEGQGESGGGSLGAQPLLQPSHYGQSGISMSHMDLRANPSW
Briefly: Stat6 Degrader Assay (HiBiT based, HeLa LgBiT clone 4.14). Type of assay: cell-based. Conditions: HeLa LgBiT clone 4.14 HiBiT-STAT6, 4-24 h incubation; values given for compounds with >80% Emax; geometric mean; read-out: STAT6 degradation DC50. The method, boiled down:
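HeLa LgBiT clone 4.14 cells with CRISPR HiBiT-tagged endogenous STAT6, 5000 cells/well, compound dosed then incubated 4-24 h at 37° C, 5% CO2. Nano-Glo substrate added, 0.5 h, luminescence read as non-degraded STAT6. Terfenadine 50 μM (cell kill) defines 100% degradation.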

Assay [2] relates to Eotaxin-3 release in human whole blood stimulated with IL-4. Briefly: Human Whole Blood Eotaxin-3 Assay (IL-4 stimulated eotaxin-3 release). Type of assay: cell-based. Conditions: IL-4 stimulation, 48 h, values given for compounds with >80% Emax, geometric mean. The method, boiled down:
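Lithium-heparin human whole blood preincubated 2 h at 37° C with 4-fold serially diluted compounds (0.5% DMSO), then stimulated with recombinant human IL-4 ([…]) for 48 h. Eotaxin-3 (CCL26) in supernatant quantified by MSD immunoassay.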

Regarding `CNc1cc(=O)n(-c2ccnc3c2cc(CN2CCC(c4c(F)cc(C(=O)N5CCC(CN6CCN(Cc7ccc8c(c7)C(C)(C)C(=O)N8[C@H]7CCC(=O)NC7=O)C[C@@H]6C)CC5)cc4F)CC2)n3C)cc1F` (single isomer, unassigned) [Example 3u49], in assay [1], the 50% degradation concentration (DC50) is 1.7 nM. The 50% effective concentration (EC50) in assay [2] was 12.9 nM.
In the same order, the values of `CNc1cc(=O)n(-c2ccnc3c2cc(CN2CCC(c4c(F)cc(C(=O)N5CCC(CN6CCN(Cc7ccc8c(c7)C(C)(C)C(=O)N8[C@@H]7CCC(=O)NC7=O)C[C@@H]6C)CC5)cc4F)CC2)n3C)cc1F` (single isomer, unassigned) [Example 3u50] are 0.9 nM and 30.2 nM.
The matching figures for `CNc1cc(=O)n(-c2ccnc3c2cc([C@H](C)N2CC=C(c4c(F)cc(C(=O)N5CCC(CN6CCN(Cc7ccc8c(c7)n(C)c(=O)n8[C@H]7CCC(=O)NC7=O)CC6)CC5)cc4F)CC2)n3C)cc1F` (single isomer, unassigned) [Example 3u52]: 4.3 nM and 1.1 nM.
The matching figures for `CNc1cc(=O)n(-c2ccnc3c2cc([C@H](C)N2CC=C(c4c(F)cc(C(=O)N5CCC(CN6CCN(Cc7ccc8c(c7)n(C)c(=O)n8[C@@H]7CCC(=O)NC7=O)CC6)CC5)cc4F)CC2)n3C)cc1F` (single isomer, unassigned) [Example 3u53]: 8.7 nM and 1.1 nM.
Turning to `CNc1cc(=O)n(-c2ccnc3c2cc(CN2CC=C(c4c(F)cc(C(=O)N5CCC(CN6CCN(Cc7ccc8c(c7)n(C)c(=O)n8[C@@H]7CCC(=O)NC7=O)C[C@@H]6C)CC5)cc4F)CC2)n3C)cc1F` (single isomer, unassigned) [Example 3u55], the DC50 in assay [1] is 7.6 nM. The concentration giving a half-maximal response (EC50) in assay [2] was 3.1 nM.
In the same order, the values of `CNc1cc(=O)n(-c2ccnc3c2cc(CN2CC=C(c4c(F)cc(C(=O)N5CCC(CN6CCN(Cc7ccc8c(c7)n(C)c(=O)n8[C@H]7CCC(=O)NC7=O)C[C@@H]6C)CC5)cc4F)CC2)n3C)cc1F` (single isomer, unassigned) [Example 3u56] are 8.7 nM and 3.5 nM.
Turning to `CNc1cc(=O)n(-c2ccnc3c2cc(CN2CCC(c4c(F)cc(C(=O)N5CCC(CN6CCN(Cc7ccc8c(c7)C(C)(C)C(=O)N8[C@H]7CCC(=O)NC7=O)CC6)CC5)cc4F)CC2)n3C)cc1F` (single isomer, unassigned) [Example 3u58], in assay [1], the 50% degradation concentration (DC50) was found to be 7.6 nM. Moreover, in assay [2], the EC50 came out at 12.6 nM.
In the same order, the values of `CNc1cc(=O)n(-c2ccnc3c2cc(CN2CCC(c4c(F)cc(C(=O)N5CCC(CN6CCN(Cc7ccc8c(c7)C(C)(C)C(=O)N8[C@@H]7CCC(=O)NC7=O)CC6)CC5)cc4F)CC2)n3C)cc1F` (single isomer, unassigned) [Example 3u59] are 11.4 nM and 25.8 nM.
In the same order, the values of `CNc1cc(=O)n(-c2ccnc3c2cc(CN2CCC(c4c(F)cc(C(=O)N5CCC(CN6CCN(Cc7ccc8c(c7)n(C)c(=O)n8[C@H]7CCC(=O)NC7=O)C[C@@H]6C)CC5)cc4F)CC2)n3C)cc1F` (single isomer, unassigned) [Example 3u61] are 1.9 nM and 1.2 nM.
In the same order, the values of `CNc1cc(=O)n(-c2ccnc3c2cc(CN2CCC(c4c(F)cc(C(=O)N5CCC(CN6CCN(Cc7ccc8c(c7)n(C)c(=O)n8[C@@H]7CCC(=O)NC7=O)C[C@@H]6C)CC5)cc4F)CC2)n3C)cc1F` (single isomer, unassigned) [Example 3u62] are 1.2 nM and 1.2 nM.
For the molecule `CNc1cc(=O)n(-c2ccnc3c2cc([C@H](C)N2CC=C(c4c(C)cc(C(=O)N5CCC(CN6CCN(c7ccc8c(c7)C7(CC7)C(=O)N8[C@@H]7CCC(=O)NC7=O)C[C@@H]6C)CC5)cc4F)CC2)n3C)cc1F` (single isomer, unassigned) [Example 3u64], the DC50 in assay [1] worked out at 7.3 nM. For the same molecule, the EC50 in assay [2] is 50.3 nM.
For the molecule `CNc1cc(=O)n(-c2ccnc3c2cc([C@H](C)N2CC=C(c4c(C)cc(C(=O)N5CCC(CN6CCN(Cc7ccc8c(c7)C7(CC7)C(=O)N8[C@H]7CCC(=O)NC7=O)CC6)CC5)cc4F)CC2)n3C)cc1F` (single isomer, unassigned) [Example 3u67], in assay [1], the DC50 worked out at 1.4 nM. Moreover, the EC50 in assay [2] worked out at 5.8 nM.
The matching figures for `CNc1cc(=O)n(-c2ccnc3c2cc([C@H](C)N2CC=C(c4c(C)cc(C(=O)N5CCC(CN6CCN(Cc7ccc8c(c7)C7(CC7)C(=O)N8[C@@H]7CCC(=O)NC7=O)CC6)CC5)cc4F)CC2)n3C)cc1F` (single isomer, unassigned) [Example 3u68]: 1 nM and 7.8 nM.
The matching figures for `CNc1ccn(-c2ccnc3c2cc(CN2CC=C(c4c(F)cc(C(=O)N5CCC(CN6CCN(Cc7ccc8c(c7)n(C7CC7)c(=O)n8[C@H]7CCC(=O)NC7=O)C[C@@H]6C)CC5)cc4F)CC2)n3C)c(=O)c1` (single isomer, unassigned) [Example 3u72]: 4.5 nM and 1.9 nM.
The matching figures for `CNc1ccn(-c2ccnc3c2cc(CN2CC=C(c4c(F)cc(C(=O)N5CCC(CN6CCN(Cc7ccc8c(c7)n(C7CC7)c(=O)n8[C@@H]7CCC(=O)NC7=O)C[C@@H]6C)CC5)cc4F)CC2)n3C)c(=O)c1` (single isomer, unassigned) [Example 3u73]: 6.8 nM and 2.4 nM.
In the case of `Cc1cc(C(=O)N2CCC(CN3CCN(Cc4cc5c(cc4F)n([C@H]4CCC(=O)NC4=O)c(=O)n5C)CC3)CC2)cc(F)c1C1=CCN([C@@H](C)c2cc3c(-n4ccc5c(c4=O)CCN5)ccnc3n2C)CC1` (single isomer, unassigned) [Example 3u75], the DC50 in assay [1] is 0.6 nM. In assay [2], this molecule came in with an EC50 of 1 nM.
The matching figures for `Cc1cc(C(=O)N2CCC(CN3CCN(Cc4cc5c(cc4F)n([C@@H]4CCC(=O)NC4=O)c(=O)n5C)CC3)CC2)cc(F)c1C1=CCN([C@@H](C)c2cc3c(-n4ccc5c(c4=O)CCN5)ccnc3n2C)CC1` (single isomer, unassigned) [Example 3u76]: 3.2 nM and 1.3 nM.
The matching figures for `CNc1cc(=O)n(-c2ccnc3c2cc(CN2CC=C(c4c(F)cc(C(=O)N5CCC(CN6CCN(Cc7ccc8c(c7)C(C)(C)C(=O)N8[C@H]7CCC(=O)NC7=O)C[C@@H]6C)CC5)cc4F)CC2)n3C)cc1F` (single isomer, unassigned) [Example 3u78]: 9.8 nM and 45.9 nM.
In the same order, the values of `CNc1cc(=O)n(-c2ccnc3c2cc(CN2CC=C(c4c(F)cc(C(=O)N5CCC(CN6CCN(Cc7ccc8c(c7)C(C)(C)C(=O)N8[C@@H]7CCC(=O)NC7=O)C[C@@H]6C)CC5)cc4F)CC2)n3C)cc1F` (single isomer, unassigned) [Example 3u79] are 15.4 nM and 107 nM.
On to `CNc1ccn(-c2ccnc3c2cc([C@H](C)N2CCC(c4c(F)cc(C(=O)N5CCC(CN6CCN(Cc7ccc8c(c7)C(C)(C)C(=O)N8[C@@H]7CCC(=O)NC7=O)C[C@@H]6C)CC5)cc4F)CC2)n3C)c(=O)c1` (single isomer, unassigned) [Example 3u82], for which, in assay [1], the DC50 amounted to 1.1 nM. The EC50 in assay [2] turned out to be 1.1 nM.
As for `CNc1cc(=O)n(-c2ccnc3c2cc([C@H](C)N2CC=C(c4c(C)cc(C(=O)N5CCC(CN6CCN(Cc7ccc8c(c7)C(C)(C)C(=O)N8[C@H]7CCC(=O)NC7=O)CC6)CC5)cc4F)CC2)n3C)cc1F` (single isomer, unassigned) [Example 3u88], in assay [1], the DC50 came out at 3.3 nM. The molecule also came in with an EC50 in assay [2] of 12.9 nM.
